“Also recorded” adds a separate entry of the source.
Legend:
H460 cells = assay: Crystal violet cell viability assay, H460; assay type: cell-based
Method: Referring now to FIG. 11A. Gel showing effect of MCI13E on DNA-RPA binding. […] Cytotoxicity was analyzed via crystal violet analysis as described in “methods” 48 hours following MCI13E treatment. Data represent the average and standard deviation of four replicate experiments with each replicate containing triplicate determinations and the circles represent data from H460 cells and squares A549 cells. Referring now to FIG. 11C. Graph of MCI13E induced death via apoptosis in NSCLC cell lines. Cell were treated with the indicated concentrations of MCI13E for 48 hours and analyzed for the induction of apoptosis via Annexin V/PI staining Referring now to FIG. 11D. Graph of cell survival as a function of [MCI1EC]. Percent survival was calculated for each cell line using untreated cells as a control. Data presented are the average and standard deviation from four replicate experiments. Experiments were performed in non-small cell lung cancer (NSCLC) cell lines A549 (squares), an adenocarcinoma, and the large cell carcinoma H460 cell line (circles).
Cell Viability Assays—A crystal violet cell viability assay was performed to determine cytotoxicity of SMI. Lung cancer cell lines, A549 and H460, were plated in 24-well dishes at 5×10^4 total cells. Forty-eight hours after plating, the cells were treated for […] with variable concentrations of SMIs. The media was aspirated, cells washed with 500 μl of PBS/EDTA and stained for 10 minutes with crystal violet solution (50% Ethanol, 0.75% crystal violet). Stained cells were resuspended in 500 μl DMSO containing 1% SDS and absorbance was measured at 590 nm in a SpectraMax M5 plate reader (Molecular Devices, Sunnyvale, Calif.) and analyzed using SoftMax Pro 5.2. Percent viability is taken as an absorbance percentage against control untreated cells. Values plotted represent four separate plate replicates and each plate replicate contained three assay replicates per plate.

[1] = biological target: T1, full-length heterotrimeric RPA (Homo sapiens, UniProt P27694); assay: EMSA in vitro DNA binding assay, full-length heterotrimeric RPA; details: ssDNA substrate
T1 construct: Human full-length, un-tagged heterotrimeric RPA (RPA) was purified as previously describe; made in house
Method: RPA. Human full-length, un-tagged heterotrimeric RPA (RPA) was purified as previously describe.
RPA and DBD-A/B Binding. EMSAs were performed as previously described (22) using a 30-base purine rich ssDNA substrate (3Pc3). Briefly, reactions contained 12.5 nM 5′-[^32P]-labeled 3Pc3 ssDNA and the indicated concentrations of RPA or DBD-A/B. Protein was pre-incubated with the indicated concentration of SMI for 30 minutes at 37° C. DNA was then added and reactions incubated for an additional 5 minutes at room temperature in a final reaction volume of 40 μL. Reactions were then resolved on a 6% native polyacrylamide gel and electrophoresed at 170 volts for 1 hour. Gels were dried and quantified via phosphorimager analysis and ImageQuant software (Molecular Dynamics).

p21 = assay: Quantitative real-time PCR of p21 mRNA; assay type: cell-based; details: A549, versus untreated control
Method: Real-Time PCR—A549 cells were plated in 10 cm dishes at 1.5×10^6, allowed to adhere, and treated for 24-48 hours with cisplatin or SMIs (5 μM). Referring now to FIG. 16B, Western blot of cells treated sequentially. For sequential treatment, A549 cells were exposed to cisplatin for 24 hours followed by the addition of SMIs for another 24 hours as above. Referring now to FIG. 16A, A549 cells were treated sequentially or concurrently with cisplatin (5 μM) and MCI13E or MCI13F for 24 total hours. Lysates were probed for p53-ser15-phosphorylation or phosphorylated-ATM. GAPDH was probed as a loading control. Concurrently treated cells were incubated simultaneously with both cisplatin and MCIs for 24 hours. RNA was extracted using RNeasy minikit (Qiagen, Germantown, Md.) per manufacturer's protocol. cDNA was generated using Applied Biosystem's (ABI) High Capacity RNA-to-cDNA kit. Validated gene primer/probe sets, also from ABI, were used for Quantitative Real Time-PCR. ABI's ΔΔCT Relative Quantification methodology was used for the analyses (applied Biosystems). Data were normalized to the housekeeping gene GAPDH and calibrated to the mock treated samples. Results presented are the average of two separate cell treatments/RNA isolations with duplicate Taqman Assays per RNA sample set.
Referring now to FIG. 15A. Plot of Quantitative Real Time PCR analyses of mRNA expression changes of A549 cells treated with MCI13E, MCI13F and Cisplatin. Data represents the average of four separate Q-RT PCR Assays. Genes of interest were normalized to GAPDH transcript levels, and are presented as fold changes relative to untreated cell samples. Cisplatin treatment increases transcription of DDB2 (A). Referring now to FIG. 15B. Bar graph of P21/GAPDH measured in cells subjected to different treatment schemes. Referring now to FIG. 15C. Bar graph of XPC/GAPDH measured under different treatment regimes XPC Concurrent MCI/Cisplatin treated cells show a decrease in gene transcription when compared to cells treated with Cisplatin alone (24 hour).

RPA DBD-A/B = biological target: T2, RPA DBD-A/B (Homo sapiens, UniProt P27694); assay: EMSA DNA binding assay, RPA DBD-A/B construct
T2 construct: made in house; host or cells: E. coli BL21(DE3)
Method: DBD-A/B. The sequence encoding the RPA p70 DNA binding domains A and B were subcloned from the hrRPA plasmid (provided by Dr. Marc Wold, University of Iowa) into the pET15b (Novagen) vector and the protein was expressed in BL21(DE3) cells (Stratagene) as previously described. Briefly, cells were grown to an OD600 of 0.8, induced with 0.5 mM isopropyl-1-thio-β-D-galactopyranoside (IPTG) at 37° C. for 2-3 hours. Small scale DBD-A/B preparations were obtained from 1 L cultures and following induction, cells were harvested by centrifugation at 700×g for 30 minutes at 4° C. The pellets were suspended in Buffer A (20 mM Tris, pH 7.5, 10% glycerol, 500 mM NaCl, 10 mM β-mercaptoethanol (BME) and 1 μg/mL phenylmethanesulfonylfluoride (PMSF), leupeptin and pepstatin) at 1 mL/gram of cells. The cells were lysed by sonication and insoluble material sedimented at 15,000×g for 30 minutes at 4° C. The supernatant was then loaded onto a 10 mL phosphocellulose column, equilibrated with Buffer A, and the flow-through material collected. Imidazole was added to 5 mM to the flow through which was then loaded onto a 2 mL nickel-NTA-agarose column. The column was then washed with Buffer A containing 50 mM imidazole after which protein was eluted from the column using a gradient from 50-500 mM imidazole. Fractions were analyzed for protein content using Bradford and SDS-PAGE analysis in addition to assessment of DNA binding activity as determined by anisotropy. Fractions containing the DBD-A/B protein were pooled and dialyzed overnight in Buffer B (1 mM HEPES, pH 7.2, 10 mM dithiothreitol (DTT), 50 mM NaCl and 1 μg/mL PMSF, pepstatin and leupeptin) and aliquots stored at −80° C.
RPA and DBD-A/B Binding. EMSAs were performed as previously described (22) using a 30-base purine rich ssDNA substrate (3Pc3). […] Gels were dried and quantified via phosphorimager analysis and ImageQuant software (Molecular Dynamics).

A549 cell lines = assay: Combination with ionizing radiation, A549; assay type: cell-based; details: A549, data not shown

T2 sequence (P27694 181-422 limits assumed): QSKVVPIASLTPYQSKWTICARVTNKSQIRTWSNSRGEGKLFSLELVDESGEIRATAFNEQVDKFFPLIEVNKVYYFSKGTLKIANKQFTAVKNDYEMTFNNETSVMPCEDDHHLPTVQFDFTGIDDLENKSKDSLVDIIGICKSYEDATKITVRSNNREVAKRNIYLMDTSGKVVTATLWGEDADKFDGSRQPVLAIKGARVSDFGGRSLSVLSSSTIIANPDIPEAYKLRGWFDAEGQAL
T1 sequence (P27694 whole entry): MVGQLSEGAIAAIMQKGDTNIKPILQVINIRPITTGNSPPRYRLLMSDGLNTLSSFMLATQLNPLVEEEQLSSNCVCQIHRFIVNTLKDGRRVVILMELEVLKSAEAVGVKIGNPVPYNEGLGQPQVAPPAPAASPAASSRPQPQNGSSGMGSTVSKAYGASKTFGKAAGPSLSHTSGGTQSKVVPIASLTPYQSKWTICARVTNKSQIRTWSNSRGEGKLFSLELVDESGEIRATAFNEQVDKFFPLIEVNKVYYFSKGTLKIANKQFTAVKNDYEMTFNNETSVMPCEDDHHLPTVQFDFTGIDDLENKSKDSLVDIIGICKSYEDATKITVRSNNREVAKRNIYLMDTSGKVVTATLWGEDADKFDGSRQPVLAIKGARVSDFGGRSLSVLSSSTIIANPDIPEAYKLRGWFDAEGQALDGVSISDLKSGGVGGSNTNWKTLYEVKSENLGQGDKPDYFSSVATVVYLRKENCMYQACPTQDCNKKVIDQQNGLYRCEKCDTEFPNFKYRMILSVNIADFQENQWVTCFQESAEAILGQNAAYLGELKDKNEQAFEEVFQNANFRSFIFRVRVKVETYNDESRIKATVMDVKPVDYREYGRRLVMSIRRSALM
T1 sequence (P15927 whole entry partner): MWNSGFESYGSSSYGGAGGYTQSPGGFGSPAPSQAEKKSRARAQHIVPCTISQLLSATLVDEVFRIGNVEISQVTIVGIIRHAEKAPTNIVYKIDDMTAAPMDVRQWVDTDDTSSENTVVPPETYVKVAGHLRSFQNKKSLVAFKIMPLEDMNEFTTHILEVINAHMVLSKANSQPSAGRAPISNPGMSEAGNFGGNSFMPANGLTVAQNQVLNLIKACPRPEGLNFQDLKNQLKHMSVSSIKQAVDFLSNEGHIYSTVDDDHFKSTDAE
T1 sequence (P35244 whole entry partner): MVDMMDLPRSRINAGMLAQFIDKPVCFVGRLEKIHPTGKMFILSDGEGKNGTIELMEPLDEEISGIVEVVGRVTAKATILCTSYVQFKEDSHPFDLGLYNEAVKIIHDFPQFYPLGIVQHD

Q: Which IC50 (H460 cells; 48 hours, crystal violet) does the source give for `CC1(C)C2CCC1(C)C(OC(=O)CBr)C2` (racemic) [MCI13E, (+/−)-Isobornyl bromoacetate] here?
A: Its IC50 is ~5 µM.

Q: What about the “Inhibition of full-length RPA DNA binding” value [1] of the same compound?
A: The value was “inhibits RPA-DNA binding in vitro; also recorded: inhibition of the full-length heterotrimer RPA”.

Q: What about the “p21 mRNA expression, single agent” value (p21) of the same compound?
A: Its value is “only slightly increases the expression level of p21”.

Q: And the “Inhibition of DBD-A/B DNA binding” value (RPA DBD-A/B)?
A: The value was “no inhibitory activity; also recorded: completely ineffective”.

Q: What about the “Cell death in combination with ionizing radiation” value (A549 cell lines) of the same compound?
A: The value was “at best, an additive increase in cell death”.

Q: With `CC1(C)C2CCC1(C)C(OC(=O)CI)C2` (racemic) [MCI13F, (+/−)-Isobornyl iodoacetate] as the compound, how does the IC50 (H460 cells; 48 hours after exposing the cells) read?
A: Its IC50 is 4 µM.

Q: What about the IC50 (H460 cells; 48 hours, crystal violet) of the same compound?
A: The IC50 was ~5 µM.

Q: And the “Inhibition of full-length RPA DNA binding” value [1]?
A: The value was “slightly more effective”.

Q: What about the “p21 mRNA expression, single agent” value (p21) of the same compound?
A: The value was “only slightly increases the expression level of p21”.

Q: What about the “Inhibition of DBD-A/B DNA binding” value (RPA DBD-A/B) of the same compound?
A: The value was “no inhibitory activity; also recorded: completely ineffective”.

Q: What about the “Cell death in combination with ionizing radiation” value (A549 cell lines) of the same compound?
A: Its value is “at best, an additive increase in cell death”.

Source: patent publication US9757350B2, “Small molecule inhibitors of replication protein A that also act synergistically with cisplatin” (Indiana University Research and Technology Corp., priority 2010, dated 2017)
